# Laboratory results from US6248739A, “Quinolinecarboxamides as antiviral agents” (Pharmacia & Upjohn Company, priority 1999, dated 2001).
# Structures can show the parent of a compound that is named as a salt.
# Biological target: T1, HCMV polymerase (Human cytomegalovirus, UniProt P08546)
# T1 construct: made in house; host or cells: recombinant baculovirus-infected SF-9 insect cells
# Experiment: biochemical
# Details: not given
# Experimental: The HCMV polymerase assay is performed using a scintillation proximity assay (SPA) as described in several references, such as N. D. Cook, et al., Pharmaceutical Manufacturing International, pages 49-53 (1992); K. Takeuchi, Laboratory Practice, September issue (1992); U.S. Pat. No. 4,568,649 (1986); which are incorporated by reference herein. Reactions are performed in 96-well plates. The assay is conducted in 100 μl volume with 5.4 mM HEPES (pH 7.5), 11.7 mM KCl, 4.5 mM MgCl2, 0.36 mg/ml BSA, and 90 nM ^3 H-dTTP. Assays are run with and without CHAPS, (3-[(3-Cholamidopropyl)dimethylammonio]-1-propane-sulfonate) at a final concentration of 2 mM. HCMV polymerase is diluted in enzyme dilution buffer containing 50% glycerol, 250 mM NaCl, 10 mM HEPES (pH 7.5), 100 μg/ml BSA, and 0.01% sodium azide. The HCMV polymerase, which is expressed in recombinant baculovirus-infected SF-9 cells and purified according to literature procedures, is added at 10% (or 10 μl) of the final reaction volume, i.e., 100 μl. Compounds are diluted in 50% DMSO and 10 μl are added to each well. Control wells contain an equivalent concentration of DMSO. Unless noted otherwise, reactions are initiated via the addition of 6 nM biotinylated poly(dA)-oligo(dT) template/primer to reaction mixtures containing the enzyme, substrate, and compounds of interest. Plates are incubated in a 25 C. or 37 C. H2 O bath and terminated via the addition of 40 μl/reaction of 0.5 M EDTA (pH 8) per well. Reactions are terminated within the time-frame during which substrate incorporation is linear and varied depending upon the enzyme and conditions used, i.e., 30 min. for HCMV polymerase. Ten μl of streptavidin-SPA beads (20 mg/ml in PBS/10% glycerol) are added following termination of the reaction. Plates are incubated 10 min. at 37 C., then equilibrated to room temperature, and counted on a Packard Topcount. Linear regressions are performed and IC50 's are calculated using computer software.
# A modified version of the above HCMV polymerase assay is performed as described above, but with the following changes: Compounds are diluted in 100% DMSO until final dilution into assay buffer. In the previous assay, compounds are diluted in 50% DMSO. 4.5 mM dithiotherotol (DTT) is added to the polymerase buffer.
# T1 sequence (P08546 whole entry): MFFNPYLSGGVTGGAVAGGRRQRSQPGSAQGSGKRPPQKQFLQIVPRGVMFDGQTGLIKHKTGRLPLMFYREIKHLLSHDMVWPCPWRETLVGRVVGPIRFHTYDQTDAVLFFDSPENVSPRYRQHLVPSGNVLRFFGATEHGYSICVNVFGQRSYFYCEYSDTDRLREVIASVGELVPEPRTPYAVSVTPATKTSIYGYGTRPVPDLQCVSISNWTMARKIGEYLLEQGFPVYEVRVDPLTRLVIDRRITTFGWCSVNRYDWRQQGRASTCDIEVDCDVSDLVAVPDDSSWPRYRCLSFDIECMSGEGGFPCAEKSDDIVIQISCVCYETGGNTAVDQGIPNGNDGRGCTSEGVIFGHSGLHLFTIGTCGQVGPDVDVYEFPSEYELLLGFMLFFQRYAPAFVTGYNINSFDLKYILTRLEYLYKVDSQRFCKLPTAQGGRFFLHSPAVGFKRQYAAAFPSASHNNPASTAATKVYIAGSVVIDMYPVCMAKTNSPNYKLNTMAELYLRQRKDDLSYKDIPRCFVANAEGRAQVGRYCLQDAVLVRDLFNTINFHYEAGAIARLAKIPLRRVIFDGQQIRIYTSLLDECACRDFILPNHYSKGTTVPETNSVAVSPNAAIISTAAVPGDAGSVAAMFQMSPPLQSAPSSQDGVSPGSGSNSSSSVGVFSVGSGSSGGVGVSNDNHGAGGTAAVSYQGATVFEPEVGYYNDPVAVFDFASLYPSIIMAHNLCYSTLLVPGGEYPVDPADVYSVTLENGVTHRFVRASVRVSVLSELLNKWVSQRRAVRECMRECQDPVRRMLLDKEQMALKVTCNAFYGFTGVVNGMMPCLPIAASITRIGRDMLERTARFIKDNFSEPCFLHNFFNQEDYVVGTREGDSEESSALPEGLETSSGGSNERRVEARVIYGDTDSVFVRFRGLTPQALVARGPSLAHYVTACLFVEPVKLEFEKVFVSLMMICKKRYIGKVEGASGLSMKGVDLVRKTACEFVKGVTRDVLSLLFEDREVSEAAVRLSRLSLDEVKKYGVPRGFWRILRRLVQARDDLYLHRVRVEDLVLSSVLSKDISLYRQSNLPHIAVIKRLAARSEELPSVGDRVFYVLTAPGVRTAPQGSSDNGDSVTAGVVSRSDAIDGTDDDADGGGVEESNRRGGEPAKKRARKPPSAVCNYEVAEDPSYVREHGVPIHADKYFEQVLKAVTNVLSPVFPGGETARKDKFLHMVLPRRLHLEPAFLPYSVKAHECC
row,Compound,IC50
1,"O=C(NCc1ccc(Cl)cc1)c1cn(CCN2CCCC2)c2ccc(C#CCO)cc2c1=O [Example 18, N-(4-Chlorobenzyl)-6-(3-hydroxy-1-propynyl)-1-[2-(1-pyrolidinyl)ethyl]-4-oxo-1,4-dihydro-3-quinolinecarboxamide]",2700 nM
2,"O=C(NCc1ccc(Cl)cc1)c1cn(CCCOC2CCCCO2)c2c(F)cc(CO)cc2c1=O (centres unmarked) [Example 6, N-(4-Chlorobenzyl)-8-fluoro-6-(hydroxymethyl)-4-oxo-1-[3-(tetrahydro-2H-pyran-2-yloxy)propyl]-1,4-dihydro-3-quinolinecarboxamide]",7200 nM

# Same assay, conditions: HCMV polymerase; SPA; modified assay: compounds in 100% DMSO, 4.5 mM DTT
row,Compound,IC50
1,"CC[S+]([O-])CCn1cc(C(=O)NCc2ccc(Cl)cc2)c(=O)c2cc(CN3CCOCC3)ccc21 (centres unmarked) [Example 68, N-(4-Chlorobenzyl)-1-[2-(ethylsulfinyl)ethyl]-6-(4-morpholinylmethyl)-4-oxo-1,4-dihydro-3-quinolinecarboxamide]",930 nM
2,"O=C(NCc1ccc(Cl)cc1)c1cn(CS(=O)(=O)c2ccc(Cl)cc2)c2ccc(CN3CCOCC3)cc2c1=O [Example 103, N-(4-Chlorobenzyl)-1-([(4-chlorophenyl)sulfonyl]methyl)-6-(4-morpholinylmethyl)-4-oxo-1,4-dihydro-3-quinolinecarboxamide]",830 nM
3,"COC[C@H]1CCCN1n1cc(C(=O)NCc2ccc(Cl)cc2)c(=O)c2cc(CN3CCOCC3)ccc21 [Example 116, N-(4-Chlorobenzyl)-1-[(2R)-2-(methoxymethyl)pyrrolidinyl]-6-(4-morpholinylmethyl)-4-oxo-1,4-dihydro-3-quinolinecarboxamide]",14000 nM
4,"CS(=O)(=O)CCCn1cc(C(=O)NCc2ccc(Cl)cc2)c(=O)c2cc(CN3CCOCC3)ccc21 [Example 67, N-(4-Chlorobenzyl)-1-[3-(methylsulfonyl)propyl]-6-(4-morpholinylmethyl)-4-oxo-1,4dihydro-3-quinolinecarboxamide]",700 nM
5,"CCOCCOCCn1cc(C(=O)NCc2ccc(Cl)cc2)c(=O)c2cc(CN3CCOCC3)ccc21 [Example 58, N-(4-Chlorobenzyl)-1-[2-(2-ethoxyethoxy)ethyl]-6-(4-morpholinylmethyl)-4-oxo-1,4-dihydro-3-quinolinecarboxamide]",1400 nM
6,"O=C(O)Cn1cc(C(=O)NCc2ccc(Cl)cc2)c(=O)c2cc(C#CCO)ccc21 [Example 29, 2-[3-{[(4-Chlorobenzyl)amino]carbonyl}-6-(3-hydroxy-1-propynyl)-4-oxo-1(4H)-quinolinyl]acetic acid]",1000 nM
7,O=C(NCc1ccc(Cl)cc1)c1cn(CCC[S+]([O-])CCCO)c2ccc(CN3CCOCC3)cc2c1=O (centres unmarked) [Example 70],870 nM
8,"Cn1cc(C(=O)NCc2ccc(Cl)cc2)c(=O)c2cccc(C#CCCO)c21 [Example 97, N-(4-Chlorobenzyl)-8-(4-hydroxy-1-butynyl)-1-methyl-4-oxo-1,4-dihydro-3-quinolinecarboxamide]",1500 nM
9,"Cn1cc(C(=O)NCc2ccc(Cl)cc2)c(=O)c2cc(CCCOP(=O)(O)O)ccc21 [Example 33, 3-(3-{[(4-Chlorobenzyl)amino]carbonyl}-1-methyl-4-oxo-1,4-dihydro-6-quinolinyl)propyl dihydrogen phosphate]",3700 nM
10,"Cn1cc(C(=O)NCc2ccc(Cl)cc2)c(=O)c2cc(CC3CCOCC3)ccc21 [Example 98, N-(4-Chlorobenzyl)-1-methyl-4-oxo-6-(tetrahydro-2H-pyran-4-ylmethyl)-1,4-dihydro-3-quinolinecarboxamide]",310 nM
11,"O=C(NCc1ccc(Br)cc1)c1cn(N2CCOCC2)c2ccc(CN3CCOCC3)cc2c1=O [Example 124, N-(4-Bromobenzy)-1-(4-morpholinyl)-6-(4-morpholinylmethyl)-4-oxo-1,4-dihydro-3-quinolinecarboxamide]",1200 nM
12,"Nn1cc(C(=O)NCc2ccc(Cl)cc2)c(=O)c2cc(C#CCO)ccc21 [Example 118, 1-Amino-N-(4-chlorobenzyl)-6(3-hydroxy-1-propynyl)-4-oxo-1,4-dihydro-3-quinolinecarboxamide]",1100 nM
13,"Cn1cc(C(=S)NCc2ccc(Cl)cc2)c(=O)c2cc(CN3CCOCC3)ccc21 [Example 95, N-(4-Chlorobenzyl)-1-methyl-6-(4-morpholinylmethyl)-4-oxo-1,4-dihydro-3-quinolinecarbothioamide]",300 nM
14,O=C(NCc1ccc(Cl)cc1)c1cn(CCOCCN2CCOCC2)c2ccc(CN3CCOCC3)cc2c1=O [Example 100],2900 nM
15,"O=C(NCc1ccc(Cl)cc1)c1cn(COc2ccc(Cl)cc2)c2ccc(CN3CCOCC3)cc2c1=O [Example 104, N-(4-Chlorobenzyl)-1-[(4-chlorophenoxy)methyl]-6-(4-morpholinylmethyl)-4-oxo-1,4-dihydro-3-quinolinecarboxamide]",1600 nM
16,"O=C(NCc1ccc(Cl)cc1)c1cn(CSc2ccc(Cl)cc2)c2ccc(CN3CCOCC3)cc2c1=O [Example 101, N-(4-Chlorobenzyl)-1-([(4-chlorophenyl)sulfanyl]methyl)-6-(4-morpholinylmethyl)-4-oxo-1,4-dihydro-3-quinolinecarboxamide]",300 nM
17,"CC(C)(C)OCCOCCn1cc(C(=O)NCc2ccc(Cl)cc2)c(=O)c2cc(CN3CCOCC3)ccc21 [Example 91, 1-{2-[2-(tert-Butoxy)ethoxy]ethyl}-N-(4-chlorobenzyl)-6-(4-morpholinylmethyl)-4-oxo-1,4-dihydro-3-quinolinecarboxamide]",2100 nM
18,"CCC(C)n1cc(C(=O)NCc2ccc(Cl)cc2)c(=O)c2cc(C#CCO)cc(OC)c21 (centres unmarked) [Example 3, 1-(sec-butyl)-N-(4-chlorobenzyl)-6-(3-hydroxy-1-propynyl)-8-methoxy-4-oxo-1,4-dihydro-3-quinolinecarboxamide]",2300 nM
19,"COCCOCCn1cc(C(=O)NCc2ccc(Cl)cc2)c(=O)c2cc(CN(C)[C@H](C)[C@@H](O)c3ccccc3)ccc21 [Example 88, N-(4-Chlorobenzyl)-6-{[[(1R,2S)-2-hydroxy-1-methyl-2-phenylethyl](methyl)amino]methyl}-1-[2-(2-methoxyethoxy)ethyl]-4-oxo-1,4-dihydro-3-quinolinecarboxamide]",5900 nM
20,"Cn1cc(C(=O)NCc2ccc(Cl)cc2)c(=O)c2cc(/C=C\CO)cc(F)c21 [Example 9, N-(4-Chlorobenzyl)-8-fluoro-6-[(Z)-3-hydroxy-1-propenyl)-1-methyl-4-oxo-1,4-dihydro-3-quinolinecarboxamide]",< 780 nM
21,"CS(=O)(=O)Cn1cc(C(=O)NCc2ccc(Cl)cc2)c(=O)c2cc(CN3CCOCC3)ccc21 [Example 80, N-(4-Chlorobenzyl)-1-[(methylsulfonyl)methyl]-6-(4-morpholinylmethyl)-4-oxo-1,4-dihydro-3-quinolinecarboxamide]",1100 nM
22,"CN(CCS(=O)(=O)O)C(=O)CCCCCCC(=O)OCC#Cc1ccc2c(c1)c(=O)c(C(=O)NCc1ccc(Cl)cc1)cn2C [Example 37, Sodium 2-[(8-{[3-(3-{[(^4-chlorobenzyl)amino]carbonyl}-1-methyl-4-oxo-1,4-dihydro-6-quinolinyl)-2-propynyl]oxy}-8-oxooctanoyl)(methyl)amino]-1-ethanesulfonate]",> 20000 nM
23,"CCCn1cc(C(=O)NCc2ccc(Cl)cc2)c(=O)c2cc(C#CCO)ccc21 [Example 11, N-(4-Chlorobenzyl)-6-(3-hydroxy-1-propynyl)-4-oxo-1-propyl-1,4-dihydro-3-quinolinecarboxamide]",1500 nM
24,"CN(C)CCCn1cc(C(=O)NCc2ccc(Cl)cc2)c(=O)c2cc(C#CCO)ccc21 [Example 20, N-(4-Chlorobenzyl)-1-[3-(dimethylamino)propyl]-6-(3-hydroxy-1-propynyl)-4-oxo-1,4-dihydro-3-quinolinecarboxamide]",3800 nM
25,"Cn1cc(C(=O)NCc2ccc(Cl)cc2)c(=O)c2cc(CN(CCO)CCO)ccc21 [Example 44, 6-((Bis(2-hydroxyethyl)amino)methyl)-N-(4-chlorobenzyl)-1-1-methyl-4-oxo-1,4-dihydro-3-quinolinecarboxamide.]",9300 nM
26,"CN(C)CCn1cc(C(=O)NCc2ccc(Cl)cc2)c(=O)c2cc(C#CCO)ccc21 [Example 13, N-(4-Chlorobenzyl)-1-[2-(dimethylamino)ethyl]-6-(3-hydroxy-1-propynyl)-4-oxo-1,4-dihydro-3-quinolinecarboxamide, hydrochloride salt]",2900 nM
27,"C[S+]([O-])Cn1cc(C(=O)NCc2ccc(Cl)cc2)c(=O)c2cc(CN3CCOCC3)ccc21 (centres unmarked) [Example 79, N-(4-Chlorobenzyl)-1-[(methylsulfinyl)methyl]-6-(4-morpholinylmethyl)-4-oxo-1,4-dihydro-3-quinolinecarboxamide]",1100 nM
